Laboratory results taken from publication PMC11497106, “GJB2 Promotes HCC Progression by Activating Glycolysis Through Cytoplasmic Translocation and Generating a Suppressive Tumor Microenvironment Based on Single Cell RNA Sequencing” (Advanced Science, 2024).

Target: T1, GJB2 (Gap junction protein beta-2; Connexin 26, Cx26); GFP-GJB2 (Homo sapiens, UniProt P29033)
T1 construct: 7QEQ is printed as human GJB2 for docking only
Assay: microscale thermophoresis (Monolith NT.[…]), GFP-GJB2 in HEK293T lysate
Assay type: binding

For `O=C(/C=C/c1ccc(O)c2c1[C@H](C(=O)O[C@H](Cc1ccc(O)c(O)c1)C(=O)O)[C@@H](c1ccc(O)c(O)c1)O2)O[C@H](Cc1ccc(O)c(O)c1)C(=O)O` [Salvianolic acid B], which Kd is on record?
The Kd was 8.52 µM.
